Data from ChEMBL document CHEMBL2074135, “Recognition of L-amino acid ester compounds by rat peptide transporters PEPT1 and PEPT2” (J Pharmacol Exp Ther, 1999).
Values belong to the compound of their own block, whether it stands above or below them.

How the values were obtained:
Format in all cases: functional, cell-based
[1] = target: T1, Solute carrier family 15 member 2 (Rattus norvegicus) (UniProt Q63424); experiment: TP_TRANSPORTER: inhibition of Gly-Sar uptake (Gly-Sar: 20 uM, Gly-OMe: 10000 uM) in PEPT2-expressing LLC-PK1 cells
T1 sequence (whole entry): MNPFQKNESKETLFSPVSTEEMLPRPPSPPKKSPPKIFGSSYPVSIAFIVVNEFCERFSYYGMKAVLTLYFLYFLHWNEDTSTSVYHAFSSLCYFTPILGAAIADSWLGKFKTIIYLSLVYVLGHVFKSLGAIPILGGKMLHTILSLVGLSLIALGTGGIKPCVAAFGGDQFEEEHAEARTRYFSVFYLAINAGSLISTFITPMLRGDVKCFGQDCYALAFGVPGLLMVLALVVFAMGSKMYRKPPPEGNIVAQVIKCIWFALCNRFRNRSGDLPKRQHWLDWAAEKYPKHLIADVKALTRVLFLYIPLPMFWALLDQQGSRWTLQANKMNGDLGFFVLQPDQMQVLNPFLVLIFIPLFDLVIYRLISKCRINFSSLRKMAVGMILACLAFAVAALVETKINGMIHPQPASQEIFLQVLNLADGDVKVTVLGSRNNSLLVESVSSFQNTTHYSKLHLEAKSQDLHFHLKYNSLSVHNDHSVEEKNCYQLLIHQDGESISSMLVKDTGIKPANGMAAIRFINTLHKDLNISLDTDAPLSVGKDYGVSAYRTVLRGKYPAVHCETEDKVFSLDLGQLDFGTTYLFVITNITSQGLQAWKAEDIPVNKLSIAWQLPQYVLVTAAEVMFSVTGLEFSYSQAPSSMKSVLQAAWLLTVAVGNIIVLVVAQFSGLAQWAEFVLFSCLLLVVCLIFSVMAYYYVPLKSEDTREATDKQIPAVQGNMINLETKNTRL

[2] = target: T2, Solute carrier family 15 member 1 (Rattus norvegicus) (UniProt P51574); experiment: TP_TRANSPORTER: inhibition of Gly-Sar uptake (Gly-Sar: 20 uM, Gly-OMe: 10000 uM) in PEPT1-expressing LLC-PK1 cells
T2 sequence (whole entry): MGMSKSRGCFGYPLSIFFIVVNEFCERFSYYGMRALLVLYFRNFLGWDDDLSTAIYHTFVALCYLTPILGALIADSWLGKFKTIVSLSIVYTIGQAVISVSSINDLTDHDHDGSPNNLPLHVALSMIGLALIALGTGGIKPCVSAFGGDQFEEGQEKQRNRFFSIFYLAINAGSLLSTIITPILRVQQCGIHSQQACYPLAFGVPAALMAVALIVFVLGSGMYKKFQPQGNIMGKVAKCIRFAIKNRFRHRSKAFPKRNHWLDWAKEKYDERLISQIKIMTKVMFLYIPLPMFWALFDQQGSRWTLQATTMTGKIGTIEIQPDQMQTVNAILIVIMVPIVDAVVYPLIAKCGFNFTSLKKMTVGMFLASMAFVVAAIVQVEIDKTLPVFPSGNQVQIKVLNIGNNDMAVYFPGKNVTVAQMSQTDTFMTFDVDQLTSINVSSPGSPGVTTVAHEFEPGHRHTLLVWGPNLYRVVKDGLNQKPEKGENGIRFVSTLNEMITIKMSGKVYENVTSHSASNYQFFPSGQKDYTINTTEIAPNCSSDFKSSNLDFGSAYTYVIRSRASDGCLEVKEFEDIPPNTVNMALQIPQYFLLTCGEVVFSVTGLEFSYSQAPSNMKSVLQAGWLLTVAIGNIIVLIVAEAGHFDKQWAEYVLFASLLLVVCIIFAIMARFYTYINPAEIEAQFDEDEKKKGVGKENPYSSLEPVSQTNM

[3] = target: T2, Solute carrier family 15 member 1 (Rattus norvegicus); experiment: TP_TRANSPORTER: inhibition of Gly-Sar uptake (Gly-Sar: 20 uM, Val-OEt: 10000 uM) in PEPT1-expressing LLC-PK1 cells
[4] = target: T1, Solute carrier family 15 member 2 (Rattus norvegicus); experiment: TP_TRANSPORTER: inhibition of Gly-Sar uptake (Gly-Sar: 20 uM, Val-OEt: 10000 uM) in PEPT2-expressing LLC-PK1 cells
[5] = target: T3, Solute carrier family 15 member 1 (Rattus norvegicus, UniProt P51574); experiment: TP_TRANSPORTER: inhibition of Gly-Sar uptake in PEPT1-expressing LLC-PK1 cells
T3 sequence (P51574 whole entry): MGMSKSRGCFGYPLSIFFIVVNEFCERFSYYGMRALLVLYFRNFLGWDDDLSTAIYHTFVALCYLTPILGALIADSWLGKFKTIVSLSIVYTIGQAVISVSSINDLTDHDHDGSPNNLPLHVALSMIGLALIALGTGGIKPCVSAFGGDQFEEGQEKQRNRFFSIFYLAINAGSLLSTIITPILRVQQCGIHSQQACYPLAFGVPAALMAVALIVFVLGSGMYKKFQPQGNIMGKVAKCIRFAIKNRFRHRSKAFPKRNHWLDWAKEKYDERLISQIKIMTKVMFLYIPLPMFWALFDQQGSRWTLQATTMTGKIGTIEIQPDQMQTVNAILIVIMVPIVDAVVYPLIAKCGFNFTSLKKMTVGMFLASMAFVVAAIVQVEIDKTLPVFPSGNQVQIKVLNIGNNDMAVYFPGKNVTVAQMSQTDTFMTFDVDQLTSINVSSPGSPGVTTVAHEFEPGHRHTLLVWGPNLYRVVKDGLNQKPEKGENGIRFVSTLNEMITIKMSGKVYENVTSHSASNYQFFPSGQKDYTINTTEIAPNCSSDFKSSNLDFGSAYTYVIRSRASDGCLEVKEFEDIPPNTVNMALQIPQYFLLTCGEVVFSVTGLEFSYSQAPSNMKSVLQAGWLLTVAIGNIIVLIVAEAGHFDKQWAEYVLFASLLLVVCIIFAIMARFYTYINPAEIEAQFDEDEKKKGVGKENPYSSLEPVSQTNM

[6] = target: T4, Solute carrier family 15 member 2 (Rattus norvegicus, UniProt Q63424); experiment: TP_TRANSPORTER: inhibition of Gly-Sar uptake in PEPT2-expressing LLC-PK1 cells
T4 sequence (Q63424 whole entry): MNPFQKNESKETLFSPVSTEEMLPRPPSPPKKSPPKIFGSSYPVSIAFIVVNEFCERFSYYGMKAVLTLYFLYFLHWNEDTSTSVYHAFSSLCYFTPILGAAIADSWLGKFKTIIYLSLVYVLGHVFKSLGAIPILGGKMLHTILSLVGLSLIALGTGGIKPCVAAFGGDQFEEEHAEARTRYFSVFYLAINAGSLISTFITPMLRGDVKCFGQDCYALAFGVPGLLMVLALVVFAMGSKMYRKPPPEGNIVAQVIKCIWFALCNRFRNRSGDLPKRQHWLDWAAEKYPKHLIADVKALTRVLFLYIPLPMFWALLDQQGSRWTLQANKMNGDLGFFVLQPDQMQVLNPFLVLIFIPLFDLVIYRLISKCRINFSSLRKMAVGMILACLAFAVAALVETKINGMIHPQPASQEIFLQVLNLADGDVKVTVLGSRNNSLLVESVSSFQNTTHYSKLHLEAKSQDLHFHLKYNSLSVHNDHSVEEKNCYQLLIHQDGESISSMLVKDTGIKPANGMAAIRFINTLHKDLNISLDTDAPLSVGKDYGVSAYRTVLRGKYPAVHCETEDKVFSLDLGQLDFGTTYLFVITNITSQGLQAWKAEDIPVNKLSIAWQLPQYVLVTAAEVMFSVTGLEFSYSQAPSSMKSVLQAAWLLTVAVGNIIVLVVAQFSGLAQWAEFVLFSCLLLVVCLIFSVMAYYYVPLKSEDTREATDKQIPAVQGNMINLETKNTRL

[7] = target: T1, Solute carrier family 15 member 2 (Rattus norvegicus); experiment: TP_TRANSPORTER: inhibition of Gly-Sar uptake (Gly-Sar: 20 uM, Val-tBu: 10000 uM) in PEPT2-expressing LLC-PK1 cells
[8] = target: T2, Solute carrier family 15 member 1 (Rattus norvegicus); experiment: TP_TRANSPORTER: inhibition of Gly-Sar uptake (Gly-Sar: 20 uM, Val-tBu: 10000 uM) in PEPT1-expressing LLC-PK1 cells
[9] = target: T1, Solute carrier family 15 member 2 (Rattus norvegicus); experiment: TP_TRANSPORTER: inhibition of Gly-Sar uptake (Gly-Sar: 20 uM, Ala-OMe: 10000 uM) in PEPT2-expressing LLC-PK1 cells
[10] = target: T2, Solute carrier family 15 member 1 (Rattus norvegicus); experiment: TP_TRANSPORTER: inhibition of Gly-Sar uptake (Gly-Sar: 20 uM, Ala-OMe: 10000 uM) in PEPT1-expressing LLC-PK1 cells
[11] = target: T2, Solute carrier family 15 member 1 (Rattus norvegicus); experiment: TP_TRANSPORTER: inhibition of Gly-Sar uptake (Gly-Sar: 20 uM, Leu-OMe: 10000 uM) in PEPT1-expressing LLC-PK1 cells
[12] = target: T1, Solute carrier family 15 member 2 (Rattus norvegicus); experiment: TP_TRANSPORTER: inhibition of Gly-Sar uptake (Gly-Sar: 20 uM, Leu-OMe: 10000 uM) in PEPT2-expressing LLC-PK1 cells

Compound: COC(=O)CN
Activity [1]: inhibitor [+] | Activity [2]: inhibitor [+]

Compound: CCOC(=O)[C@@H](N)C(C)C
Activity [3]: inhibitor [+] | Activity [4]: inhibitor [+]

Compound: CC(C)[C@H](N)C(=O)OC(C)(C)C
Activity [7]: inhibitor [+] | Activity [8]: inhibitor [+]

Compound: COC(=O)[C@H](C)N
Activity [9]: inhibitor [+] | Activity [10]: inhibitor [+]

Continued, values first:

Ki [5]: 3600 µM | Ki [6]: 830 µM
Compound: COC(=O)[C@@H](N)C(C)C

Activity [11]: inhibitor [+] | Activity [12]: inhibitor [+]
Compound: COC(=O)[C@@H](N)CC(C)C
